According to patent US5859067A, “Use of natural products and related synthetic compounds for the treatment of cardiovascular disease” (priority 1993, dated 1999):
Several values for one entry are separate records, joined by “and”; a condition that tells them apart may be missing. Equal entries are not always repeated. Where two headings read alike, the source gives them in different places.

Legend:
[1] = target: T1, human erythrocyte plasma membrane Ca^2+ -ATPase (Homo sapiens, UniProt P23634); test: Ca^2+ -ATPase assay (microplate method), absence (-CaM) and presence (+CaM) of calmodulin (Table 1A); format: biochemical
T1 construct: Calmodulin-depleted erythrocyte membranes were prepared by continuous filtration through a hollow fibre; tissue New South Wales Red Cross Transfusion Service, Sydney; host or cells: human packed red blood cells (calmodulin-depleted erythrocyte membranes)
Description: Natural and synthetic compounds of formula (I) were tested for their ability to influence human erythrocyte plasma membrane Ca^2+ -ATPase. The enzyme Ca^2+ -ATPase in the human red blood cell plasma membrane has previously been studied and its stimulation by calmodulin and activation by lipids and proteolysis and its primary structure have been published (see Carafoli E (1991) Calcium pump of the plasma membrane, Physiological Reviews 71, 129-153.
(§1) Calmodulin-depleted erythrocyte membranes were prepared by continuous filtration through a hollow fibre, Ashahi plasma separator as described by W S Price, B D Roufogalis, P W Kuchel (1989), A simple and inexpensive method for preparing erythrocyte membranes by filtration through a hollow-filter system, Anal. Biochem., 179, 190-193. Packed cells were obtained from the New South Wales Red Cross Transfusion Service, Sydney. The whole preparation was carried out at 4° C. 1 unit of packed red cells was washed 3 times with isotonic buffer, containing 130 mM KCl, 20 mM Tris-HCl (pH 7.4), and the cells were collected by centrifugation at 4,000 RPM. The cells were haemolysed by the buffer containing 1 mM EDTA, 10 mM Tris-Hcl (pH 7.4), 0.5 mM PMSF (phenylmethyl sulfonyl fluoride). The haemolyzate mixture was passed through the hollow fibre system until the membrane appeared white, and then washed with 10 mM potassium Hepes (pH 7.4). The membranes were collected by centrifugation at 10,000 RPM for 20 min, the membranes were resuspended in storage buffer containing 130 mM KCl, 2 mM dithiothreitol, 0.5 mM MgCl2, 20 mM potassium-Hepes (pH 7.5). The membranes with protein concentration of 1.5-5.4 mg/ml were stored at -80° C. until required.
Erythrocyte membranes were incubated at 37° C. for one hour in a total volume of 60 μl of 65 mM KCl, 50 mM HEPES (pH=7.4), 5 mM MgCl2, 50 μM CaCl2, 0.1 mM EGTA and in absence and presence of calmodulin (0.3 μM). Test compounds were dissolved in dimethyl sulfoxide DMSO and 2 μl was added to the assay mixture prior the addition of ATP. The final concentration of DMSO in the assay mixture was 3%. The reaction was started by adding 2 mM ATP (pH=7.4). After 1 hour of incubation, colouring agent (180 μl) was added and incubated at 37° C. for 1/2 hrs. The phosphate liberated to the assay medium was determined spectrometrically using a microplate reader at 750 nm. The activity of the Mg^2+ -ATPase (assayed in the absence of added CaCl2) was subtracted from the total activity assayed in the presence of Ca^2+.

[2] = tested on: brine shrimp (Artemia salina Leach); test: Brine shrimp toxicity bioassay; format: in vivo; conditions: for LC50: Artemia salina, read-out: LC50 brine shrimp
Description: There are many applications of the assay including analysis of toxic substances, anaesthetics, morphine-like substances and cocarcinogenicity of phorbol esters.
6 (K Hostettman, ed.), Academ Press, London, 1-32. DMSO solutions of the substances to be tested were added directly to the vials containing the brine shrimp. As the concentration of DMSO that we wished to use was higher than the recommended 1% v/v testing of the toxicity of the DMSO was therefore necessary.
Brine shrimp toxicity was assayed, except for some minor modifications, according to the method of McLaughlin et al as reported in Brine Shrimp: A convenient general bioassay for active plant constituents, B N Meyer, N R Ferrigni, J E Putman, L B Jacobsen, D E Nhols and J L McLaughlin. […] J L McLaughlin. […] 6 (K Hostettman, ed.), Academ Press, London, 1-32. Ten shrimp were added transferred to each of the vials and the volume adjusted to 4.9 mL. Each dose was performed in triplicate, including the control. In quick succession, the appropriate volume of additional DMSO for each dose, required to achieve a final concentration of 2%, was added before the appropriate volume of test solution. The vials were gently mixed and the time noted. After 24 hours, the number of survivors were counted and % mortality was determined.
The LC50 values were expressed in both μM and μg/mL.

[3] = target: T1, human erythrocyte plasma membrane Ca^2+ -ATPase; test: Ca^2+ -ATPase assay (erythrocyte membranes; Table 1); format: biochemical
Description: Natural and synthetic compounds of formula (I) were tested for their ability to influence human erythrocyte plasma membrane Ca^2+ -ATPase.
as §1, with “Packed” for “Calmodulin-depleted erythrocyte membranes were prepared by continuous filtration through a hollow fibre, Ashahi plasma separator as described by W S Price, B D Roufogalis, P W Kuchel (1989), A simple and inexpensive method for preparing erythrocyte membranes by filtration through a hollow-filter system, Anal. Biochem., 179, 190-193. Packed”
Erythrocyte membranes (0.071-0.098 mg/ml) were incubated at 37° C. for one hour in a total volume of 0.4 ml of 65 mM KCl, 20 mM potassium-Hepes, 5 mM MgCl2, 50 μM CaCl2, 0.1 μm calmodulin, 0.1 mM EGTA. The reaction was started by adding 2 mM ATP(pH 7.4). […] The activity of the Mg^2+ -ATPase (assayed in the absence of added CaCl2) was subtracted from the total activity assayed in the presence of Ca^2+. […] A concentrated solution of the test substances was added to the reaction medium before adding ATP.

[4] = absence of calmodulin, read-out: IC50 (-CaM)
[5] = presence of calmodulin (0.3 μM), read-out: IC50 (+CaM)
[6] = IC50 (+CaM), presence of calmodulin (0.3 μM)
[7] = IC50 (-CaM), absence of calmodulin
[8] = at 100 μM, read-out: INHIBITION OF Ca^2+ -ATPase PERCENT (%)
[9] = read-out: INHIBITION OF Ca^2+ -ATPase IC50
[10] = read-out: INHIBITION OF Ca^2+ -ATPase PERCENT (%)

T1 sequence (P23634 1-1205 isoform P23634-6): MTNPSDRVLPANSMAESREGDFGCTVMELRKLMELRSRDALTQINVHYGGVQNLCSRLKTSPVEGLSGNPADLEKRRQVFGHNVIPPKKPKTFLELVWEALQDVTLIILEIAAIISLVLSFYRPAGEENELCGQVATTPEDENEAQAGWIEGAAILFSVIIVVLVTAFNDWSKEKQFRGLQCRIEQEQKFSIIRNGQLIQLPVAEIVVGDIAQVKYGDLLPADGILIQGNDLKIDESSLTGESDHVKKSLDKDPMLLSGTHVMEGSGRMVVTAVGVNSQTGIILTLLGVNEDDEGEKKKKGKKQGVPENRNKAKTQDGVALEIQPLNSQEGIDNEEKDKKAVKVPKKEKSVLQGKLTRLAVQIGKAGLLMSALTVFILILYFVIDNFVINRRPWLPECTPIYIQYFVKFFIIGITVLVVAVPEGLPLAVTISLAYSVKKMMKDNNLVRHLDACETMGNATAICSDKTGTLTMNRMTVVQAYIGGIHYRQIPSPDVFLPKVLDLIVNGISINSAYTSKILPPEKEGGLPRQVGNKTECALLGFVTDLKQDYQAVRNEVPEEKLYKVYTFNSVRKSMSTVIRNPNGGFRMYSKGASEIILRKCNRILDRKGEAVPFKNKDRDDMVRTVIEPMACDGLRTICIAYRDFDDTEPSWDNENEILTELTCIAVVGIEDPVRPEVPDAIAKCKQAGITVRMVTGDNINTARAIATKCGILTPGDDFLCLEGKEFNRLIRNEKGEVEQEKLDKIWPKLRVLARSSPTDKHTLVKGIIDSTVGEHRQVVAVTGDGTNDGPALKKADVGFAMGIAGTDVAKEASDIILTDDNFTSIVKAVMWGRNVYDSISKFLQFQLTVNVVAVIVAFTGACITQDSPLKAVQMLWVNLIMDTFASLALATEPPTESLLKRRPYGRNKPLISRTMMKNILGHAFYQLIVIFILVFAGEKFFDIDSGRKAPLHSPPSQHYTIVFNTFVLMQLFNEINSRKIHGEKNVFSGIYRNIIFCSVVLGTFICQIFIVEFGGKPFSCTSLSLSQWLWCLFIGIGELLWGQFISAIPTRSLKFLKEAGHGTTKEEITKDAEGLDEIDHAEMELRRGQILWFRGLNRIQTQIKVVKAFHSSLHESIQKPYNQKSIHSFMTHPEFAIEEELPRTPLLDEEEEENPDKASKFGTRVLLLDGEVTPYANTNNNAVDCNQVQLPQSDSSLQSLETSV
T1 sequence (P35613 140-385 partner limits assumed): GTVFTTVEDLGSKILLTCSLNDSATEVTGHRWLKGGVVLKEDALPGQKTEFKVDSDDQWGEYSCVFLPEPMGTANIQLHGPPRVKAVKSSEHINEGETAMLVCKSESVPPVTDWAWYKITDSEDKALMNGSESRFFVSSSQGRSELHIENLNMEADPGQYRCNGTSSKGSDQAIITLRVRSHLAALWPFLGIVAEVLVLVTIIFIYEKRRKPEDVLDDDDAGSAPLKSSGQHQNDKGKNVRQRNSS

## Cc1c(O)ccc(CCCCCCCCCCc2ccc(O)c(C)c2O)c1O [1,10-bis(2,4-dihydroxy-3-methylphenyl)decane]
[1]; [4]
  IC50: 100 µM
[1]; [5]
  IC50: 100 µM
[2]; 24 hours
  LC50: > 25 µM and > 9.7 µg/mL

## CCCCCCCCCc1cc(Br)cc([N+](=O)[O-])c1O [4-bromo-2-nitro-6-nonylphenol]
[1]; [6]
  IC50: 65.5 µM

## Oc1ccc2ccccc2c1CCCCCCCCCCc1c(O)ccc2ccccc12 [1,10-bis(2-hydroxy-1-naphthyl)decane]
[1]; [4]
  IC50: 92 µM
[1]; [5]
  IC50: 90 µM
[2]; 24 hours
  LC50: > 25 µM and > 11 µg/mL

## Cc1ccc(O)c(CCCCCCCCCCc2cc(C)ccc2O)c1 [1,10-bis(2-hydroxy-5-methylphenyl)decane]
[1]; [4]
  IC50: 22 µM
[1]; [5]
  IC50: 20.5 µM

## CCCCCCCCCc1cc(C)ccc1O [4-methyl-6-nonylphenol]
[1]; [6]
  IC50: 75 µM
[1]; [7]
  IC50: 80 µM

## CCCCCCCCCCCCCc1cc(O)cc(O)c1 [grevillol, 5-tridecylresorcinol]
[2]; 24 hours
  toxicity to brine shrimp (in words): moderately toxic
  LC50: 2.8 µM and 0.8 µg/mL
[3]
  Ca^2+ -ATPase inhibitory activity (in words): weak
[3]; [8]
  inhibition at 100 µM: 44%
[3]; [9]
  IC50: 143 µM

## Oc1ccc(CCCCCCCCCCc2ccccc2O)cc1 [1-(2-hydroxyphenyl)-10-(4-hydroxyphenyl)decane]
[2]; 24 hours
  LC50: 350 nM and 0.11 µg/mL
[3]; at 50 μM, read-out: INHIBITION OF Ca^2+ -ATPase PERCENT (%)
  inhibition at 50 µM: 100%
[3]; [9]
  IC50: 12 µM

## CCCCCCCCCc1cc(O)cc(O)c1C(=O)OCC [ethyl 2,4-dihydroxy-6-nonylbenzoate]
[2]; 24 hours
  LC50: 2.6 µM and 0.8 µg/mL
[3]; [8]
  inhibition at 100 µM: 73%
[3]; [9]
  IC50: 62 µM

## CCCCCCCCCCc1c(Br)c(O)c(Br)c(O)c1C(=O)OCC [ethyl 3,5-dibromo-2,4-dihydroxy-6-decylbenzoate]
[2]; 24 hours
  LC50: 780 nM and 0.37 µg/mL
[3]; [8]
  inhibition at 100 µM: 73%
[3]; [9]
  IC50: 69 µM

## CCCCCCCCc1ccccc1O [2-octylphenol]
[2]; 24 h
  LC50: 1.5 µM and 0.31 µg/mL
[3]
  IC50: 32 µM
[3]; [10]
  inhibition at 100 µM: 100%

## CCCCCCCCCc1ccc(C)cc1O [3-methyl-6-nonylphenol]
[1]; [6]
  IC50: 60 µM
[1]; [7]
  IC50: 52 µM

## CCCCCCCCCc1cc([N+](=O)[O-])ccc1O [4-nitro-6-nonylphenol]
[1]; [6]
  IC50: 70 µM
[1]; [7]
  IC50: 80 µM

## C=C(C)C(CC=C(C)C)Cc1c(OC)cc(O)c2c1OC(c1c(O)cccc1O)CC2=O (stereo not drawn) [5,2',6'-trihydroxy-8-lavandulyl-7-methoxyflavanone]
[1]; [4]
  IC50: 45.3 µM

## CCCCCCCCCCc1ccc(O)cc1 [4-decylphenol]
[2]; 24 h
  LC50: 270 nM and 0.064 µg/mL
[3]
  IC50: 170 µM
[3]; [10]
  inhibition at 100 µM: 24%

## Oc1ccccc1CCCCCCCCCc1ccccc1O [1,9-bis(2-hydroxyphenyl)nonane]
[1]; [4]
  IC50: 13.5 µM
[1]; [5]
  IC50: 14 µM

## CCCCCCCCCCc1cc(O)cc(O)c1 [5-decylresorcinol]
[2]; 24 hours
  LC50: 54 µM and 15 µg/mL
[3]; [8]
  inhibition at 100 µM: 30%
[3]; [9]
  IC50: 135 µM

## Oc1ccc(CCCCCCCCCCc2ccc(O)cc2)cc1 [1,10-bis(4-hydroxyphenyl)decane]
[2]; 24 hours
  LC50: 810 nM and 0.26 µg/mL
[3]; [8]
  inhibition at 100 µM: 52%
[3]; [9]
  IC50: 93 µM

## CCCCCCCCCc1c(Br)c(O)c(Br)c(O)c1C(=O)OCC [ethyl 3,5-dibromo-2,4-dihydroxy-6-nonylbenzoate]
[2]; 24 hours
  LC50: 780 nM and 0.36 µg/mL
[3]; [8]
  inhibition at 100 µM: 95%
[3]; [9]
  IC50: 44 µM

## CCCCCCCCCCc1ccccc1O [2-decylphenol]
[2]; 24 hours
  LC50: 680 nM and 0.16 µg/mL
[3]; [8]
  inhibition at 100 µM: 85%
[3]; [9]
  IC50: 42 µM

## Oc1cc(O)cc(CCCCCCCCCCCCCCc2cc(O)cc(O)c2)c1 [bisnorstriatol, 1,14-bis(3,5-dihydroxyphenyl)tetradecane]
[2]; 24 hours
  toxicity to brine shrimp (in words): relatively low toxicity
  LC50: 40 µM and 17 µg/mL
[3]; [8]
  inhibition at 100 µM: 35%
[3]; at 500 μM
  inhibition at 500 µM: 69.1%
[3]; [9]
  IC50: > 100 µM

## 4-bromo-6-nonylresorcinol
[1]; [4]
  IC50: 400 µM
[1]; [5]
  IC50: 400 µM

## CCCCCCCCCc1cc(Br)ccc1O [4-bromo-6-nonylphenol]
[1]; [6]
  IC50: 55 µM
[1]; [7]
  IC50: 52 µM

## C=C(C)C(CC=C(C)C)Cc1c(O)cc(O)c2c1OC(c1ccccc1O)CC2=O (stereo not drawn) [5,7,6'-trihydroxy-8-lavandulylflavanone]
[1]; [4]
  IC50: 26.5 µM

## CCCCCCCCCc1cc([N+](=O)[O-])cc(Br)c1O [2-bromo-4-nitro-6-nonylphenol]
[1]; [6]
  IC50: 70 µM

## CCCCCCCCCc1cccc(O)c1 [3-nonylphenol]
[2]; 24 h
  LC50: 320 nM and 0.07 µg/mL
[3]
  IC50: 64 µM
[3]; [10]
  inhibition at 100 µM: 69%

## CC(C)=CCC/C(C)=C/CC/C(C)=C/Cc1c(O)cc(C)cc1O [grifolin, 2-E,E-farnesyl-5-methyl-resorcinol]
[2]; 24 hours
  LC50: 2.3 µM and 0.75 µg/mL
[3]; [8]
  inhibition at 100 µM: 100%
[3]; [9]
  IC50: 22.5 µM

## 2-bromo-6-nonylresorcinol
[1]; [4]
  IC50: 400 µM
[1]; [5]
  IC50: 400 µM
